ChEMBL document CHEMBL1146607, “Synthesis and antifungal activity of 2,5-disubstituted-6-arylamino-4,7-benzimidazolediones” (2003)
≈ marks a conversion by molar mass, not a printed value.

What was measured:
Assay type in all cases: functional
Aspergillus niger = assay: In vitro antifungal activity against Aspergillus niger KCTC 1231 was measured
Candida albicans = assay: In vitro antifungal activity against Candida albicans ATCC 10231 was measured
Pichia kudriavzevii = assay: In vitro antifungal activity against Candida krusei ATCC 749 was measured
Candida tropicalis = assay: In vitro antifungal activity against Candida tropicalis ATCC 28775 was measured

SMILES | MIC (Aspergillus niger) [µg/mL] | MIC (Candida albicans) [µg/mL] | MIC (Pichia kudriavzevii) [µg/mL] | MIC (Candida tropicalis) [µg/mL]
COc1ccc(NC2=C(Cl)C(=O)c3nc(-c4ccccn4)[nH]c3C2=O)cc1 | 25 (≈ 65.7 µM) | 12.5 (≈ 32.8 µM) | 12.5 (≈ 32.8 µM) | 1.6 (≈ 4.2 µM)
O=C1C(Cl)=C(Cl)C(=O)c2[nH]c(-c3ccccn3)nc21 | 100 (≈ 340 µM) | > 100 | > 100 | 25 (≈ 85 µM)
O=C1C=C(Nc2ccc(Br)cc2)C(=O)c2[nH]c(-c3ccccn3)nc21 | 1.6 (≈ 4.05 µM) | 50 (≈ 127 µM) | 1.6 (≈ 4.05 µM) | 0.8 (≈ 2.02 µM)
O=C1C=C(Nc2ccc(Cl)cc2)C(=O)c2[nH]c(-c3ccccn3)nc21 | 3.2 (≈ 9.12 µM) | 50 (≈ 143 µM) | 1.6 (≈ 4.56 µM) | 0.8 (≈ 2.28 µM)
O=C1C=CC(=O)c2[nH]c(-c3ccccn3)nc21 | 100 (≈ 444 µM) | > 100 | > 100 | 100 (≈ 444 µM)
O=C1C=C(Nc2ccc(I)cc2)C(=O)c2[nH]c(-c3ccccn3)nc21 | 100 (≈ 226 µM) | 50 (≈ 113 µM) | 1.6 (≈ 3.62 µM) | 0.8 (≈ 1.81 µM)
Cc1ccc(NC2=C(Cl)C(=O)c3nc(-c4ccccn4)[nH]c3C2=O)cc1 | 25 (≈ 68.5 µM) | 12.5 (≈ 34.3 µM) | 3.2 (≈ 8.77 µM) | 1.6 (≈ 4.39 µM)
CCOc1ccc(NC2=C(Cl)C(=O)c3[nH]c(-c4ccccn4)nc3C2=O)cc1 | 25 (≈ 63.3 µM) | 12.5 (≈ 31.7 µM) | 12.5 (≈ 31.7 µM) | 3.2 (≈ 8.11 µM)
O=C1C(Cl)=C(Nc2ccc(Br)cc2)C(=O)c2[nH]c(-c3ccccn3)nc21 | 6.3 (≈ 14.7 µM) | 3.2 (≈ 7.45 µM) | 6.3 (≈ 14.7 µM) | 1.6 (≈ 3.72 µM)
Cc1ccc(NC2=CC(=O)c3[nH]c(-c4ccccn4)nc3C2=O)cc1 | 6.3 (≈ 19.1 µM) | 3.2 (≈ 9.69 µM) | 0.4 (≈ 1.21 µM) | 0.8 (≈ 2.42 µM)
O=C1C(Cl)=C(Nc2ccc(Cl)cc2)C(=O)c2[nH]c(-c3ccccn3)nc21 | 6.3 (≈ 16.4 µM) | 6.3 (≈ 16.4 µM) | 6.3 (≈ 16.4 µM) | 3.2 (≈ 8.31 µM)
COc1ccc(NC2=CC(=O)c3[nH]c(-c4ccccn4)nc3C2=O)cc1 | 50 (≈ 144 µM) | 6.3 (≈ 18.2 µM) | 1.6 (≈ 4.62 µM) | 0.8 (≈ 2.31 µM)
O=C1C(Nc2ccc(F)cc2)=CC(=O)c2[nH]c(-c3ccccn3)nc21 | 100 (≈ 299 µM) | 100 (≈ 299 µM) | 50 (≈ 150 µM) | 1.6 (≈ 4.79 µM)
CCOc1ccc(NC2=CC(=O)c3nc(-c4ccccn4)[nH]c3C2=O)cc1 | 50 (≈ 139 µM) | 50 (≈ 139 µM) | 1.6 (≈ 4.44 µM) | 0.8 (≈ 2.22 µM)
O=C1C(Cl)=C(Nc2ccc(I)cc2)C(=O)c2[nH]c(-c3ccccn3)nc21 | > 100 | 50 (≈ 105 µM) | 100 (≈ 210 µM) | 3.2 (≈ 6.71 µM)
Nc1nc(=O)[nH]cc1F [FLUCYTOSINE] | 6.3 (≈ 48.8 µM) | 3.2 (≈ 24.8 µM) | 6.3 (≈ 48.8 µM) | 6.3 (≈ 48.8 µM)

The remaining lines, values ahead:

MIC (Aspergillus niger) [µg/mL] | MIC (Candida albicans) [µg/mL] | MIC (Pichia kudriavzevii) [µg/mL] | MIC (Candida tropicalis) [µg/mL] | SMILES
100 (≈ 271 µM) | > 100 | > 100 | 6.3 (≈ 17.1 µM) | O=C1C(Cl)=C(Nc2ccc(F)cc2)C(=O)c2[nH]c(-c3ccncc3)nc21
100 (≈ 263 µM) | > 100 | > 100 | 50 (≈ 131 µM) | COc1ccc(NC2=C(Cl)C(=O)c3nc(-c4cccnc4)[nH]c3C2=O)cc1
25 (≈ 67.8 µM) | 12.5 (≈ 33.9 µM) | 6.3 (≈ 17.1 µM) | 3.2 (≈ 8.68 µM) | O=C1C(Cl)=C(Nc2ccc(F)cc2)C(=O)c2[nH]c(-c3ccccn3)nc21
100 (≈ 263 µM) | > 100 | > 100 | 25 (≈ 65.7 µM) | COc1ccc(NC2=C(Cl)C(=O)c3nc(-c4ccncc4)[nH]c3C2=O)cc1
100 (≈ 271 µM) | > 100 | > 100 | 12.5 (≈ 33.9 µM) | O=C1C(Cl)=C(Nc2ccc(F)cc2)C(=O)c2[nH]c(-c3cccnc3)nc21
100 (≈ 233 µM) | > 100 | > 100 | 12.5 (≈ 29.1 µM) | O=C1C(Cl)=C(Nc2ccc(Br)cc2)C(=O)c2[nH]c(-c3ccncc3)nc21
100 (≈ 233 µM) | > 100 | > 100 | 50 (≈ 116 µM) | O=C1C(Cl)=C(Nc2ccc(Br)cc2)C(=O)c2[nH]c(-c3cccnc3)nc21
100 (≈ 260 µM) | > 100 | > 100 | 25 (≈ 64.9 µM) | O=C1C(Cl)=C(Nc2ccc(Cl)cc2)C(=O)c2[nH]c(-c3cccnc3)nc21
100 (≈ 260 µM) | > 100 | > 100 | 3.2 (≈ 8.31 µM) | O=C1C(Cl)=C(Nc2ccc(Cl)cc2)C(=O)c2[nH]c(-c3ccncc3)nc21
